Test results as given in US12447213B2, “Modulation of novel immune checkpoint targets” (The Brigham and Women's Hospital, Inc., priority 2016, dated 2025).

What was measured:
[1] = vaccination alone or combined with a low dose of estramustine; cited from earlier work
Th17 cells [2] = test: Th17 differentiation in the presence of plate bound integrin αvβ3, cytokine production by FACS; format: cell-based, mice; settings: 10 ug/ml, BSA as control
Protocol: FIG. 40. […] Anti-CD3/CD28 beads are used at a ratio of 1:1. Naïve T cells were differentiated into pathogenic or non-pathogenic Th17 cells in vitro with anti-CD3/CD28 Dynabeads (Thermo Fisher Scientific) in the presence of plate bound integrin avb3 (10 ug/ml) or BSA (10 ug/ml) as control. Cytokine production from Th17 cells were measured by FACS on day 4.
Role of Gp49 Ligand Integrin αvβ3. Integrin αvβ3 is a known ligand of ILT-3 that induces human mast cell degranulation in a Gp49b dependent way. To determine the expression pattern of integrin αvβ3, FACs analysis was performed on various immune cell subsets. CD4^+CD44^loCD62L^hi naïve CD4 T cells were sorted by FACS and cultured in vitro with plate-bound anti-CD3 (2 ug/ml) and anti-CD28 (2 ug/ml) plus the following polarizing cytokines: IL12 (20 ng/ml) for Th1 cells; IL4 (20 ng/ml) for Th2 cells; TGFb (5 ng/ml) for iTreg cells; IL27 (25 ng/ml) for Tr1 cells; TGFb (2 ng/ml) and IL6 (25 ng/ml) for non-pathogenic Th17; IL1 (20 ng/ml), IL6 (25 ng/ml) and IL23 (20 ng/ml) for pathogenic Th17. Expression of αv and β3 integrin were analyzed by FACS and qPCR on day 4. […] Stained cells were analyzed by FACS. […] Stained cells were analyzed by FACS. […] Next, the effect of plate-bound integrin was determined. […] Cytokine production from Th17 cells was measured by FACS on day 4.

Th17 cells [3] = test: Binding of recombinant His-tagged integrin αvβ3 to Th17 cells (FACS); design: species or system mice; settings: pathogenic and non-pathogenic Th17
Protocol: (§1) FIG. 38. Integrin avb3 doesn't bind to Th17 cells (in Hank's balanced salt solution ((HBSS)) in the presence of Ca2+ and Mg2+. In vitro differentiated pathogenic and non-pathogenic Th17 cells were incubated with recombinant His-tagged integrin avb3 in HBSS buffer at room temperature for 30 min, washed twice, and then incubated with anti-His antibody for 10 min. Stained cells were analyzed by FACS.
as §1, with “FIG. 39.” for “FIG. 38.”, “(in phosphate buffered saline ((PBS))” for “(in Hank's balanced salt solution ((HBSS))”, “the absence” for “the presence”, “integrin αvβ3” for “integrin avb3”, “in PBS” for “in HBSS”
Role of Gp49 Ligand Integrin αvβ3. Integrin αvβ3 is a known ligand of ILT-3 that induces human mast cell degranulation in a Gp49b dependent way. To determine the expression pattern of integrin αvβ3, FACs analysis was performed on various immune cell subsets. […] Expression of αv and β3 integrin were analyzed by FACS and qPCR on day 4. […] Stained cells were analyzed by FACS. […] Stained cells were analyzed by FACS. […] Next, the effect of plate-bound integrin was determined. […] Cytokine production from Th17 cells was measured by FACS on day 4.

pathogenic Th17 cells = test: Pathogenic Th17 differentiation in the presence of plate bound recombinant CD166, cytokine production by FACS; format: cell-based, mouse; settings: 10 ug/ml, Gp49 dependent, WT or Gp49b KO
Protocol: FIG. 49. Plate-bound CD166 inhibits GM-CSF and enhances IL10 production from pathogenic Th17 cells in a Gp49 dependent way. Naïve T cells from spleen of WT or Gp49b KO mouse were differentiated into pathogenic in vitro with anti-CD3/CD28 Dynabeads in the presence of plate bound recombinant CD166 (10 ug/ml) or BSA (10 ug/ml) as control. Cytokine production from Th17 cells were measured by FACS on day 4.
(§2) To investigate the role of CD166, CD4+CD44^loCD62L^hi naïve CD4 T cells were sorted by FACS and cultured in vitro with plate-bound anti-CD3 (2 ug/ml) and anti-CD28 (2 ug/ml) plus the following polarizing cytokines: IL12 (20 ng/ml) for Th1 cells; IL4 (20 ng/ml) for Th2 cells; TGFb (5 ng/ml) for iTreg cells; IL27 (25 ng/ml) for Tr1 cells; TGFb (2 ng/ml) and IL6 (25 ng/ml) for non-pathogenic Th17; TGFb (2 ng/ml), IL6 (25 ng/ml) and IL23 (20 ng/ml), or, […] (25 ng/ml) and IL23 (20 ng/ml) for pathogenic Th17. Expression of CD166 was measured by FACS on day 3. […] (FIG. 48). To determine the effect of plate-bound CD166, naïve T cells from spleen of WT or Gp49b KO mouse were differentiated into pathogenic in vitro with anti-CD3/CD28 Dynabeads in the presence of plate bound recombinant CD166 (10 ug/ml) or BSA (10 ug/ml) as control. Cytokine production from Th17 cells were measured by FACS on day 4. […] Next, the role of exogenous CD166 was assayed. […] Stained cells were analyzed by FACS.

Th17 cells [4] = test: Binding of recombinant His-tagged CD166 to Th17 cells (FACS); design: species or system mice; settings: exogenous, 10 ug/ml; HBSS
Protocol: FIG. 50. Exogenous CD166 binds weakly to Th17 cells (in HBSS). In vitro differentiated pathogenic and non-pathogenic Th17 cells were incubated with recombinant His-tagged CD166 (10 ug/ml) in indicated buffer at room temperature for 30 min, washed twice, and then incubated with anti-His antibody for 10 min. Stained cells were analyzed by FACS.
as §2

## C[C@]12CC[C@@H]3c4ccc(OC(=O)N(CCCl)CCCl)cc4CC[C@H]3[C@@H]1CC[C@@H]2O [estramustine]
[1]
  patients with a ≥50% decrease in serum prostate specific antigen (PSA): 54%

## Integrin αvβ3: recombinant His-tagged integrin αvβ3, a known ligand of ILT-3
Th17 cells [2]
  effect on Th17 cells (cytokine production, FACS day 4): does not appear to have much effect
Th17 cells [3]; HBSS, in the presence of Ca2+ and Mg2+
  binding to Th17 cells: doesn't bind
Th17 cells [3]; PBS, in the absence of Ca2+ and Mg2+
  binding to Th17 cells: doesn't bind

B1: CD166: recombinant CD166; transmembrane glycoprotein (type I) encoded by the ALCAM gene, novel ligand of ILT-3 (protein, UniProt Q13740 28-583, looked up)
CD166 antigen: WYTVNSAYGDTIIIPCRLDVPQNLMFGKWKYEKPDGSPVFIAFRSSTKKSVQYDDVPEYKDRLNLSENYTLSISNARISDEKRFVCMLVTEDNVFEAPTIVKVFKQPSKPEIVSKALFLETEQLKKLGDCISEDSYPDGNITWYRNGKVLHPLEGAVVIIFKKEMDPVTQLYTMTSTLEYKTTKADIQMPFTCSVTYYGPSGQKTIHSEQAVFDIYYPTEQVTIQVLPPKNAIKEGDNITLKCLGNGNPPPEEFLFYLPGQPEGIRSSNTYTLTDVRRNATGDYKCSLIDKKSMIASTAITVHYLDLSLNPSGEVTRQIGDALPVSCTISASRNATVVWMKDNIRLRSSPSFSSLHYQDAGNYVCETALQEVEGLKKRESLTLIVEGKPQIKMTKKTDPSGLSKTIICHVEGFPKPAIQWTITGSGSVINQTEESPYINGRYYSKIIISPEENVTLTCTAENQLERTVNSLNVSAISIPEHDEADEISDENREKVNDQAKLIVGIVVGLLLAALVAGVVYWLYMKKSKTASKHVNKDLGNMEENKKLEENNHKTEA
Pathogenic Th17 cells
  GM-CSF production from pathogenic Th17 cells: inhibits
  IL10 production from pathogenic Th17 cells: enhances
Th17 cells [4]
  binding to Th17 cells: binds weakly
